# Several values for one entry are separate records, joined by “and”; a condition that tells them apart may be missing. Equal values may be shown once.
# Tested on: human erythrocytes
# Assay: Untargeted metabolomics and 13C-glucose tracing of enolase inhibitor treated erythrocytes
# Type: cell-based
# Details: 0h
# Protocol: Freshly collected erythrocytes were washed, resuspended to 10% hematocrit in buffer [25mM HEPES (pH 7.4), 120mM NaCl, 5.4mM KCl, 1.8mM CaCl2, and 1mM NaH2PO4], incubated for 1 hour at 37°C, then centrifuged at 2000xg for 5 minutes at 4°C, resuspended in fresh wash buffer to 30-40% hematocrit, and split into 210µL aliquots of packed erythrocytes. […] All samples were incubated at 37°C shaking at 500 RPM. Triplicate samples of supernatants and packed erythrocytes were collected at 0, 0.5, 1, and 6-hour intervals and snap-frozen in liquid N2.
# RBC and media samples were extracted at 1:10 and 1:20 dilutions, respectively, in 5:3:2 MeOH : MeCN:H2O v/v/v, and supernatants analyzed on a Thermo Vanquish UHPLC coupled to a Thermo Q Exactive mass spectrometer, as extensively described ([Nemkov et al., 2015]; [Nemkov et al., 2017]). The extraction buffer was supplemented with 40uM 3-^13C lactate to allow absolute quantification of lactate isotopologues, including lactate generated via glycolysis ([1,2,3-^13C3] enriched) vs. the pentose phosphate pathway ([2,3-^13C2] enriched), as described ([Reisz et al., 2016]). Metabolite assignments, peak area integration and isotopologues distributions were determined using Maven (Princeton University) ([Nemkov et al., 2015]; [Nemkov et al., 2017]).
# Data were auto-scaled and normalized to zero-hour time points. Metabolites were removed from the dataset if greater than 50% of the samples contained missing values or the relative standard deviation among replicates exceeded 25%. Additionally, data was filtered using the interquartile range to reduce near-constant values from the experiment by 5%.
# A principal component analysis of preprocessed data was plotted with the 95% confidence interval minimum volume enclosing ellipsoid for each respective group (MetaboAnalyst, cluster, plotly). A two-way repeated measures analysis of variance (ANOVA) was performed with multiple comparisons corrected for using a false discovery rate p-value cutoff of 0.05. Metabolite-Pathway analysis was performed using the R package of MetaboAnalyst, as previously described ([Xia and Wishart, 2010]). Metabolite-Protein nodal analysis was performed using omicsnet.ca and as previously described ([Zhou and Xia, 2018]).
# [1] = treated erythrocytes, one value per replicate sample, polarity +
# [2] = treated erythrocytes, one value per replicate sample, polarity -
# [3] = treated erythrocytes, replicate samples
smiles,measurement,setting,value
CC(C)(C)C(=O)OCOP(=O)(OCOC(=O)C(C)(C)C)C1CC(O)N(O)C1=O (stereo not shown) [POMSF],AMP level (metabolomics signal),replicate samples,1.48E+06 and 1.22E+06 and 1.21E+06
same,ATP level (metabolomics signal),replicate samples,1.36E+04 and 1.16E+04 and 9.69E+03
same,Adenine level (metabolomics signal),replicate samples,1.41E+05 and 1.42E+05 and 1.51E+05
same,Cytosine level (metabolomics signal),replicate samples,4.50E+04 and 5.15E+04 and 1.27E+05
same,L-alanine level (metabolomics signal),replicate samples,6.40E+06 and 7.71E+06 and 9.55E+06
same,L-arginine level (metabolomics signal),replicate samples,1.10E+07 and 7.60E+06 and 2.77E+06
same,L-asparagine level (metabolomics signal),replicate samples,1.89E+06 and 2.56E+06 and 2.42E+06
same,L-aspartate level (metabolomics signal),replicate samples,1.71E+07 and 2.26E+07 and 2.06E+07
same,L-cysteine level (metabolomics signal),replicate samples,7.54E+05 and 3.33E+05 and 7.35E+04
same,L-glutamate level (metabolomics signal),replicate samples,1.88E+07 and 2.22E+07 and 2.32E+07
same,L-glutamine level (metabolomics signal),replicate samples,2.62E+07 and 2.59E+07 and 2.28E+07
same,L-histidine level (metabolomics signal),replicate samples,1.62E+06 and 1.23E+06 and 1.63E+06
same,L-isoleucine level (metabolomics signal),replicate samples,3.04E+07 and 2.95E+07 and 2.26E+07
same,L-leucine level (metabolomics signal),replicate samples,9.83E+07 and 1.22E+08 and 9.50E+07
same,L-lysine level (metabolomics signal),replicate samples,3.76E+06 and 3.81E+06 and 3.28E+06
same,L-methionine level (metabolomics signal),replicate samples,1.04E+07 and 1.29E+07 and 9.06E+06
same,L-phenylalanine level (metabolomics signal),replicate samples,4.95E+06 and 5.41E+06 and 4.32E+06
same,L-proline level (metabolomics signal),replicate samples,3.86E+07 and 3.62E+07 and 3.21E+07
same,L-serine level (metabolomics signal),replicate samples,1.54E+06 and 1.82E+06 and 2.05E+06
same,L-threonine level (metabolomics signal),replicate samples,2.66E+06 and 3.06E+06 and 2.69E+06
same,L-tryptophan level (metabolomics signal),replicate samples,5.64E+06 and 3.84E+06 and 3.64E+06
same,L-tyrosine level (metabolomics signal),replicate samples,1.11E+07 and 1.27E+07 and 8.94E+06
same,L-valine level (metabolomics signal),replicate samples,9.15E+07 and 1.15E+08 and 1.39E+08
same,dCMP level (metabolomics signal),replicate samples,3.07E+04 and 2.16E+04 and 2.21E+04
same,dTMP level (metabolomics signal),replicate samples,1.28E+06 and 1.67E+06 and 9.76E+05
same,glycine level (metabolomics signal),replicate samples,9.91E+05 and 9.30E+05 and 1.13E+06
same,N-Acyl-D-aspartate (C06380) metabolite signal,[1],2.50E+05 and 2.72E+05 (2×)
same,Poly-gamma-D-glutamate (C05723) metabolite signal,[1],1.72E+07 and 2.04E+07 and 1.59E+07
same,D-Ribitol 5-phosphate (C01068) metabolite signal,[2],2.00E+04 and 3.48E+04 and 2.09E+04
same,"D-glucono-1,5-lactone (C00198) metabolite signal",[2],5.28E+05 and 7.59E+05 and 7.80E+05
same,L-Noradrenaline (C00547) metabolite signal,[2],2.74E+05 and 1.74E+05 and 9.62E+04
same,Oxalosuccinate (C05379) metabolite signal,[2],1.90E+05 and 1.88E+05 and 1.84E+05
same,Pyridoxamine (C00534) metabolite signal,[2],3.31E+04 and 3.01E+04 and 2.36E+04
same,Thioredoxin disulfide (C00343) metabolite signal,[2],8.00E+04 and 1.23E+05 and 3.03E+04
same,1-4-beta-D-Xylan (metabolite signal),[3],2.50E+05 and 2.94E+05 and 2.54E+05
same,2-Hydroxyglutarate/Citramalate (C02630) metabolite signal,[3],2.14E+05 and 2.40E+05 and 2.04E+05
same,5-6-Dihydrothymine (C00906) metabolite signal,[3],3.14E+05 and 3.41E+05 and 2.85E+05
same,5-10-Methenyltetrahydrofolate (metabolite signal),[3],2.33E+05 and 3.06E+05 and 3.71E+05
same,5-Hydroxyisourate (C11821) metabolite signal,[3],2.99E+06 and 4.00E+06 and 4.10E+06
same,5-L-Glutamyl-taurine (metabolite signal),[3],1.28E+05 and 9.38E+04 and 1.74E+05
same,5-Oxoproline (metabolite signal),[3],1.06E+06 and 1.19E+06 and 1.05E+06
same,(S)(+)-Allantoin (C02350) metabolite signal,[3],3.96E+04 and 4.19E+04 and 4.78E+04
same,Allantoate (C00499) metabolite signal,[3],5.92E+05 and 4.20E+05 and 1.48E+05
same,Ascorbate (metabolite signal),[3],1.27E+05 and 1.55E+05 and 1.07E+05
same,CMP-N-acetylneuraminate (metabolite signal),[3],3.49E+04 and 6.40E+04 and 4.41E+04
same,Carnosine (metabolite signal),[3],1.74E+05 and 2.21E+05 and 3.49E+05
same,Citrate (C00158) metabolite signal,[3],3.66E+04 and 3.31E+04 and 3.64E+04
same,Creatine (metabolite signal),[3],2.22E+08 and 2.62E+08 and 3.28E+08
same,Creatinine (metabolite signal),[3],3.21E+06 and 3.75E+06 and 4.22E+06
same,Cys-Gly (metabolite signal),[3],2.17E+06 and 2.00E+06 and 1.46E+06
same,D-Glucosamine (metabolite signal),[3],1.02E+05 and 8.07E+04 and 1.48E+05
same,D-Glucose (C00031) metabolite signal,[3],6.82E+06 and 7.47E+06 and 6.93E+06
same,D-Ribose (C00121) metabolite signal,[3],1.55E+05 and 2.41E+05 and 2.38E+05
same,Dehydroascorbate (metabolite signal),[3],1.97E+04 and 1.24E+04 and 6.28E+03
same,Dihydrofolate (metabolite signal),[3],2.52E+06 and 2.25E+06 and 7.96E+05
same,Dimethylglycine (metabolite signal),[3],8.88E+05 and 1.01E+06 and 1.45E+06
same,Diphosphate (C00013) metabolite signal,[3],6.51E+03 and 2.62E+03 and 7.12E+02
same,Fumarate (C00122) metabolite signal,[3],1.66E+05 and 1.93E+05 and 1.68E+05
same,Glutathione (C00051) metabolite signal,[3],1.67E+08 and 1.41E+08 and 9.66E+07
same,Glutathione disulfide (metabolite signal),[3],3.84E+05 and 6.78E+05 and 4.93E+05
same,Hypoxanthine (C00262) metabolite signal,[3],1.47E+05 and 1.29E+05 and 1.33E+05
same,IMP (C00130) metabolite signal,[3],7.71E+04 and 2.73E+04 and 2.17E+04
same,Inosine (C00294) metabolite signal,[3],9.47E+04 and 1.13E+05 and 1.20E+05
same,L-Citrulline (metabolite signal),[3],1.15E+06 and 1.84E+06 and 2.36E+06
same,L-Homoserine (metabolite signal),[3],2.11E+05 and 2.32E+05 and 1.47E+05
same,Lactate (C01432) metabolite signal,[3],7.24E+06 and 8.30E+06 and 8.24E+06
same,Malate (C00149) metabolite signal,[3],5.52E+05 and 5.73E+05 and 5.31E+05
same,Mannitol (C00392) metabolite signal,[3],8.67E+04 and 1.22E+05 and 1.45E+05
same,N-Acetylneuraminate (metabolite signal),[3],2.28E+04 and 3.32E+04 and 3.78E+04
same,N-Glycoloyl-neuraminate (metabolite signal),[3],2.22E+05 and 2.27E+05 and 1.72E+05
same,NAD+ (C00003) metabolite signal,[3],4.26E+04 and 2.68E+05 and 2.34E+05
same,Nicotinamide (C00153) metabolite signal,[3],1.57E+07 and 2.35E+07 and 2.66E+07
same,Ornithine (metabolite signal),[3],2.19E+06 and 2.53E+06 and 2.49E+06
same,Oxaloacetate (C00036) metabolite signal,[3],6.97E+04 and 6.01E+04 and 4.98E+04
same,Phosphoserine (metabolite signal),[3],4.87E+04 and 2.38E+05 and 2.25E+05
same,Putrescine (metabolite signal),[3],4.73E+04 and 6.21E+04 and 7.27E+04
same,Pyridoxal (C00250) metabolite signal,[3],5.83E+04 and 4.46E+04 and 6.28E+04
same,Pyruvate (C00022) metabolite signal,[3],1.18E+06 and 1.33E+06 and 1.20E+06
same,S-Glutathionyl-L-cysteine (metabolite signal),[3],1.80E+05 and 2.28E+05 and 9.16E+04
same,Sedoheptulose 1-phosphate (C06222) metabolite signal,[3],5.23E+04 and 6.25E+04 and 4.82E+04
same,Spermidine (metabolite signal),[3],1.16E+07 and 9.80E+06 and 1.05E+07
same,Spermine (metabolite signal),[3],9.70E+06 and 8.73E+06 and 7.99E+06
same,Succinate (C00042) metabolite signal,[3],9.79E+04 and 1.14E+05 and 1.10E+05
same,Thymidine (C00214) metabolite signal,[3],2.50E+04 and 1.31E+04 and 1.15E+04
same,UDP (C00015) metabolite signal,[3],6.45E+05 and 4.64E+05 and 1.60E+05
same,UDP-N-acetyl-D-glucosamine (metabolite signal),[3],3.60E+04 and 3.50E+04 and 3.40E+04
same,UDP-glucose (C00029) metabolite signal,[3],1.12E+05 and 1.15E+05 and 9.19E+04
same,Urate (C00366) metabolite signal,[3],4.94E+04 and 4.14E+04 and 3.72E+04
same,Xanthine (C00385) metabolite signal,[3],2.85E+05 and 3.63E+05 and 3.38E+05
same,alpha-D-Glucosamine 1-phosphate (metabolite signal),[3],1.10E+06 and 1.63E+06 and 3.07E+06
same,alpha-D-Ribose 1-phosphate (C00620) metabolite signal,[3],1.48E+05 and 1.44E+05 and 1.26E+05
same,gamma-Glutamyl-gamma-aminobutyrate (metabolite signal),[3],8.69E+04 and 8.91E+04 and 1.07E+05
same,gamma-L-Glutamyl-D-alanine (metabolite signal),[3],2.41E+04 and 3.08E+04 and 2.52E+04
same,gamma-L-Glutamyl-L-cysteine (metabolite signal),[3],4.83E+04 and 5.61E+04 and 6.44E+03
